Data reported in patent US11185531B2, “Arginine methyltransferase inhibitors and uses thereof” (Epizyme, Inc., priority 2013, dated 2021).

How the values were obtained:
human PRMT1 = target: T1, human PRMT1 (Homo sapiens, UniProt Q99873); assay: PRMT1 Biochemical Assay (3H-SAM Flashplate, peptide substrate); settings: 30 min preincubation
T1 construct: GST-tagged PRMT1; made in house; host or cells: High Five insect cells (baculovirus)
Source text: (§1) Peptide representative of human histone H4 residues 36-50 was synthesized with an N-terminal linker-affinity tag motif and a C-terminal amide cap by 21st Century Biochemicals. The peptide was purified by high-performance liquid chromatography (HPLC) to greater than 95% purity and confirmed by liquid chromatography mass spectrometry (LC-MS). The sequence was Biot-Ahx-[…]-amide (SEQ ID NO.: 1).
Full-length human PRMT1 isoform 1 (NM_001536.5) transcript clone was amplified from an HEK 293 cDNA library, incorporating flanking 5′ sequence encoding a FLAG tag ([…]) (SEQ ID NO:2) fused directly to Met 1 of PRMT1. The amplified gene was subcloned into pFastBacI (Life Technologies) modified to encode an N-terminal GST tag and a TEV cleavage sequence
GST-tagged PRMT1 was eluted with 50 mM Tris, 2 mM glutathione, pH 7.8, dialysed in buffer A and concentrated to 1 mg/mL. The purity of recovered protein was 73%. Reference: Wasilko, D. J. and S. E. Lee: “TIPS: titerless infected-cells preservation and scale-up” Bioprocess J., 5 (2006), pp. 29-32.
General Procedure for PRMT1 Enzyme Assays on Peptide Substrates.
The assays were all performed in a buffer consisting of 20 mM Bicine (pH=7.6), 1 mM TCEP, 0.005% BSG, and 0.002% Tween 20, prepared on the day of use. Compounds in 100% DMSO (1 ul) were spotted into a polypropylene 384-well V-bottom plates (Greiner) using a Platemate Plus outfitted with a 384-channel head (Thermo Scientific). DMSO (1 ul) was added to Columns 11, 12, 23, 24, rows A-H for the maximum signal control and 1 ul of SAH, a known product and inhibitor of PRMT1, was added to columns 11, 12, 23, 24, rows I-P for the minimum signal control. A cocktail (40 ul) containing the PRMT1 enzyme was added by Multidrop Combi (Thermo-Fisher). The compounds were allowed to incubate with PRMT1 for 30 min at room temperature, then a cocktail (10 ul) containing SAM and peptide was added to initiate the reaction (final volume=51 ul). The final concentrations of the components were as follows: PRMT1 was 0.5 nM, ^3H-SAM was 200 nM, non-radiolabeled SAM was 1.5 uM, peptide was 20 nM, SAH in the minimum signal control wells was 1 mM, and the DMSO concentration was 2%. The assays were stopped by the addition of non-radiolabeled SAM (10 ul) to a final concentration of 300 uM, which dilutes the ^3H-SAM to a level where its incorporation into the peptide substrate is no longer detectable. 50 ul of the reaction in the 384-well polypropylene plate was then transferred to a 384-well Flashplate and the biotinylated peptides were allowed to bind to the streptavidin surface for at least 1 hour before being washed once with 0.1% Tween20 in a Biotek ELx405 plate washer. The plates were then read in a PerkinElmer TopCount plate reader to measure the quantity of ^3H-labeled peptide bound to the Flashplate surface, measured as disintegrations per minute (dpm) or alternatively, referred to as counts per minute (cpm).
(§2) Where dpm=disintegrations per minute, cmpd=signal in assay well, and min and max are the respective minimum and maximum signal controls.
(§3) Where top and bottom are the normally allowed to float, but may be fixed at 100 or 0 respectively in a 3-parameter fit. The Hill Coefficient normally allowed to float but may also be fixed at 1 in a 3-parameter fit. Y is the % inhibition and X is the compound concentration.

human PRMT6 = target: T2, human PRMT6 (Homo sapiens, UniProt Q96LA8); assay: PRMT6 Biochemical Assay (3H-SAM Flashplate, peptide substrate); settings: 30 min preincubation
T2 construct: Flag-PRMT6-His was eluted with 200 ug/ml FLAG peptide in the same buffer; made in house; host or cells: HEK 293F cells (BacMam baculovirus, pFastBacMam)
T2 sequence (Q96LA8 with tags, fused parts or gaps): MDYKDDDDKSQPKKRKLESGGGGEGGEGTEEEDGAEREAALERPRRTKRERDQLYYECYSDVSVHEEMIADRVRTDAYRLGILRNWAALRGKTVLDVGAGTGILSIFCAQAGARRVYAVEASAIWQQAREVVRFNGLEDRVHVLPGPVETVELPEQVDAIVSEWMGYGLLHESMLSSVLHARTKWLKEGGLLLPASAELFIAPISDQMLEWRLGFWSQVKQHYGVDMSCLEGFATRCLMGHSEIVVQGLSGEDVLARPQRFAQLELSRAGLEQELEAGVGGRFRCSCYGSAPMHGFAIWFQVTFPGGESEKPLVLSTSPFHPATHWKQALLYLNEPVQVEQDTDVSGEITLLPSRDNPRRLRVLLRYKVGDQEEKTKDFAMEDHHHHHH
Source text: Peptide representative of human histone H4 residues 36-50 was synthesized with an N-terminal linker-affinity tag motif and a C-terminal amide cap by 21st Century Biochemicals. The peptide was purified by high-performance liquid chromatography (HPLC) to greater than 95% purity and confirmed by liquid chromatography mass spectrometry (LC-MS). The sequence was Biot-Ahx-[…]-amide and contained a monomethylated lysine at position 44 (SEQ ID NO:5).
Full-length human PRMT6 (NM_018137.2) transcript clone was amplified from an HEK 293 cDNA library, incorporating a flanking 5′ sequence encoding a FLAG tag ([…]) (SEQ ID NO:6) fused directly to Ser 2 of PRMT6 and a 3′ sequence encoding a hexa His sequence (HHHHHH) fused directly to Asp 375. The amplified gene was subcloned into pFastBacMam (Viva Biotech).
Column was washed with 20 mM imidazole in the same buffer and Flag-PRMT6-His was eluted with 150 mM imidazole. Pooled fractions were dialysed against buffer Ni-A and further purified by anti-flag M2 affinity chromatography. Flag-PRMT6-His was eluted with 200 ug/ml FLAG peptide in the same buffer. Pooled fractions were dialysed in 20 mM Tris, 150 mM NaCl, 10% glycerol and 5 mM 3-mercaptoethanol, pH 7.8. The purity of recovered protein was 95%.
General Procedure for PRMT6 Enzyme Assays on Peptide Substrates.
The assays were all performed in a buffer consisting of 20 mM Bicine (pH=7.6), 1 mM TCEP, 0.005% BSG, and 0.002% Tween 20, prepared on the day of use. Compounds in 100% DMSO (1 ul) were spotted into a polypropylene 384-well V-bottom plates (Greiner) using a Platemate Plus outfitted with a 384-channel head (Thermo Scientific). DMSO (1 ul) was added to Columns 11, 12, 23, 24, rows A-H for the maximum signal control and 1 ul of SAH, a known product and inhibitor of PRMT6, was added to columns 11, 12, 23, 24, rows I-P for the minimum signal control. A cocktail (40 ul) containing the PRMT6 enzyme was added by Multidrop Combi (Thermo-Fisher). The compounds were allowed to incubate with PRMT6 for 30 min at room temperature, then a cocktail (10 ul) containing SAM and peptide was added to initiate the reaction (final volume=51 ul). The final concentrations of the components were as follows: PRMT6 was 1 nM, ^3H-SAM was 200 nM, non-radiolabeled SAM was 250 nM, peptide was 75 nM, SAH in the minimum signal control wells was 1 mM, and the DMSO concentration was 2%. The assays were stopped by the addition of non-radiolabeled SAM (10 ul) to a final concentration of 400 uM, which dilutes the ^3H-SAM to a level where its incorporation into the peptide substrate is no longer detectable. 50 ul of the reaction in the 384-well polypropylene plate was then transferred to a 384-well Flashplate and the biotinylated peptides were allowed to bind to the streptavidin surface for at least 1 hour before being washed once with 0.1% Tween20 in a Biotek ELx405 plate washer. The plates were then read in a PerkinElmer TopCount plate reader to measure the quantity of ^3H-labeled peptide bound to the Flashplate surface, measured as disintegrations per minute (dpm) or alternatively, referred to as counts per minute (cpm).
as §2, §3

[1] = system: mono-methyl arginine in RKO cells; assay: RKO Methylation Assay, In Cell Western for mono-methyl arginine; assay type: cell-based; settings: Homo sapiens, 72 hours, percent activation of mono-methyl arginine signal
Source text: RKO adherent cells were purchased from ATCC (American Type Culture Collection), Manassas, Va., USA. DMEM/Glutamax medium, penicillin-streptomycin, heat inactivated fetal bovine serum, 0.05% trypsin and D-PBS were purchased from Life Technologies, Grand Island, N.Y., USA. Odyssey blocking buffer, 800 CW goat anti-rabbit IgG (H+L) antibody, and Licor Odyssey infrared scanner were purchased from Licor Biosciences, Lincoln, Nebr., USA. Mono-methyl arginine antibody was purchased from Cell Signaling Technology, Danvers, Mass., USA. Methanol was purchased from VWR, Franklin, Mass., USA. 10% Tween 20 was purchased from KPL, Inc., Gaithersburg, Md., USA. DRAQ5 was purchased from Biostatus Limited, Leicestershire, UK.
RKO adherent cells were maintained in growth medium (DMEM/Glutamax medium supplemented with 10% v/v heat inactivated fetal bovine serum and 100 units/mL penicillin-streptomycin) and cultured at 37° C. under 5% CO2.
Cell Treatment, in Cell Western (ICW) for Detection of Mono-Methyl Arginine and DNA Content.
RKO cells were seeded in assay medium at a concentration of 20,000 cells per mL to a poly-D-lysine coated 384 well culture plate (BD Biosciences 356697) with 50 μL per well. Compound (100 nL) from a 96-well source plate was added directly to 384 well cell plate. Plates were incubated at 37° C., 5% CO2 for 72 hours. After three days of incubation, plates were brought to room temperature outside of the incubator for ten minutes and blotted on paper towels to remove cell media. 50 μL of ice cold 100% methanol was added directly to each well and incubated for 30 min at room temperature. After 30 min, plates were transferred to a Biotek EL406 plate washer and washed 2 times with 100 μL per well of wash buffer (IX PBS). Next 60 μL per well of Odyssey blocking buffer (Odyssey Buffer with 0.1% Tween 20 (v/v)) were added to each plate and incubated 1 hour at room temperature. Blocking buffer was removed and 20 μL per well of primary antibody was added (mono-methyl arginine diluted 1:200 in Odyssey buffer with 0.1% Tween 20 (v/v)) and plates were incubated overnight (16 hours) at 4° C. Plates were washed 5 times with 100 μL per well of wash buffer. Next 20 μL per well of secondary antibody was added (1:200 800 CW goat anti-rabbit IgG (H+L) antibody, 1:1000 DRAQ5 (Biostatus limited) in Odyssey buffer with 0.1% Tween 20 (v/v)) and incubated for 1 hour at room temperature. The plates were washed 5 times with 100 μL per well wash buffer then 2 times with 100 μL per well of water. Plates were allowed to dry at room temperature then imaged on the Licor Odyssey machine which measures integrated intensity at 700 nm and 800 nm wavelengths. Both 700 and 800 channels were scanned.
First, the ratio for each well was determined by:
Each plate included fourteen control wells of DMSO only treatment (minimum activation) as well as fourteen control wells for maximum activation treated with 20 μM of a reference compound. The average of the ratio values for each control type was calculated and used to determine the percent activation for each test well in the plate. Reference compound was serially diluted three-fold in DMSO for a total of nine test concentrations, beginning at 20 μM. Percent activation was determined and EC30 curves were generated using triplicate wells per concentration of compound.

human PRMT8 = target: T3, human PRMT8 (Homo sapiens, UniProt Q9NR22); assay: PRMT8 Biochemical Assay (3H-SAM Flashplate, peptide substrate); settings: 30 min preincubation
T3 construct: Full-length human PRMT8 (NM_019854.4) isoform 1 transcript clone; GST (N, cleaved yes); made in house; host or cells: E. coli BL21(DE3) Gold
T3 sequence (Q9NR22 whole entry, canonical isoform): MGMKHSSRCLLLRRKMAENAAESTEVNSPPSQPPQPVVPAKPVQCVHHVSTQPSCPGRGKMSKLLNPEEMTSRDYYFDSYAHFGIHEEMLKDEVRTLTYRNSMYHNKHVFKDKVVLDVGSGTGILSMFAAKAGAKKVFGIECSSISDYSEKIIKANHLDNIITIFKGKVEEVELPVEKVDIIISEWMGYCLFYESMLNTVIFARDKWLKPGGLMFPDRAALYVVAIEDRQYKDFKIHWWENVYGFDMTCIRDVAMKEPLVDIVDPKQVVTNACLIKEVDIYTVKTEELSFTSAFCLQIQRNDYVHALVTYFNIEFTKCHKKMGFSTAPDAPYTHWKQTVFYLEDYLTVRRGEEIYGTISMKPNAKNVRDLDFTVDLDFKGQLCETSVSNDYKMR
Source text: as §1, with “31-45” for “36-50”, “NO:8).” for “NO.: 1).”
The resulting construct encodes an N-terminal GST tag and a thrombin cleavage sequence
GST-tagged PRMT8 was eluted with 50 mM Tris, 2 mM glutathione, pH 7.8. Pooled fractions were cleaved by thrombin (10 U) and dialysed in buffer A. GST was removed by reloading the cleaved protein sample onto glutathione sepharose column and PRMT8 was collected in the flow-through fractions. PRMT8 was purified further by ceramic hydroxyapatite chromatography. The column was washed with 50 mM phosphate buffer, 100 mM NaCl, 5% glycerol, 5 mM 3-mercaptoethanol, pH 7.8 and PRMT8 was eluted by 100 mM phosphate in the same buffer. Protein was concentrated and buffer was exchanged to 50 mM Tris, 300 mM NaCl, 10% glycerol, 5 mM β-mercaptoethanol, pH 7.8 by ultrafiltration. The purity of recovered protein was 89%.
General Procedure for PRMT8 Enzyme Assays on Peptide Substrates.
The assays were all performed in a buffer consisting of 20 mM Bicine (pH=7.6), 1 mM TCEP, 0.005% BSG, and 0.002% Tween 20, prepared on the day of use. Compounds in 100% DMSO (1 ul) were spotted into a polypropylene 384-well V-bottom plates (Greiner) using a Platemate Plus outfitted with a 384-channel head (Thermo Scientific). DMSO (1 ul) was added to Columns 11, 12, 23, 24, rows A-H for the maximum signal control and 1 ul of SAH, a known product and inhibitor of PRMT8, was added to columns 11, 12, 23, 24, rows I-P for the minimum signal control. A cocktail (40 ul) containing the PRMT8 enzyme was added by Multidrop Combi (Thermo-Fisher). The compounds were allowed to incubate with PRMT8 for 30 min at room temperature, then a cocktail (10 ul) containing ^3H-SAM and peptide was added to initiate the reaction (final volume=51 ul). The final concentrations of the components were as follows: PRMT8 was 1.5 nM, ^3H-SAM was 50 nM, non-radiolabeled SAM was 550 nM, peptide was 150 nM, SAH in the minimum signal control wells was 1 mM, and the DMSO concentration was 2%. The assays were stopped by the addition of non-radiolabeled SAM (10 ul) to a final concentration of 400 uM, which dilutes the ^3H-SAM to a level where its incorporation into the peptide substrate is no longer detectable. 50 ul of the reaction in the 384-well polypropylene plate was then transferred to a 384-well Flashplate and the biotinylated peptides were allowed to bind to the streptavidin surface for at least 1 hour before being washed once with 0.1% Tween20 in a Biotek ELx405 plate washer. The plates were then read in a PerkinElmer TopCount plate reader to measure the quantity of ^3H-labeled peptide bound to the Flashplate surface, measured as disintegrations per minute (dpm) or alternatively, referred to as counts per minute (cpm).
as §2, §3

T1 sequence (Q99873 with tags, fused parts or gaps): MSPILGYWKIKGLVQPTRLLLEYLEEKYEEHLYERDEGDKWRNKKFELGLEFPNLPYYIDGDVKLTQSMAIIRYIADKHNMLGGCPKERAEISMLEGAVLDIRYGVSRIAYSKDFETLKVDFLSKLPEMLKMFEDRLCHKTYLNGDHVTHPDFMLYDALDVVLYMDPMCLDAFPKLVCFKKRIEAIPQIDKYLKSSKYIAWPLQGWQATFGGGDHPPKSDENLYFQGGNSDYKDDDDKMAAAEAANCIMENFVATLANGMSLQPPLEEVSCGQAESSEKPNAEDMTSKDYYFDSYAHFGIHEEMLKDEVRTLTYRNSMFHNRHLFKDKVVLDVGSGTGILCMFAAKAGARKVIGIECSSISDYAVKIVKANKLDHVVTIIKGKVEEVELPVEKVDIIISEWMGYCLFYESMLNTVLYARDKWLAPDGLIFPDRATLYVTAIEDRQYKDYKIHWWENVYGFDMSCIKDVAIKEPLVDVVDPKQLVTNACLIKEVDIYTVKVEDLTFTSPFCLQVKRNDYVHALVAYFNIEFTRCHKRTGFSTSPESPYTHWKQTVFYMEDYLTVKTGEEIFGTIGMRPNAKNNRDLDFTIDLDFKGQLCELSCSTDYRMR

SMILES | IC50 (human PRMT1) [nM] | IC50 (human PRMT6) [nM] | EC30 [1] [nM] | IC50 (human PRMT8) [nM]
CN(CCN)Cc1c[nH]nc1C1CC1 [Compound 12] | 1010 to 3000 | 1010 to 3000 | – | –
CN(CCN)Cc1c[nH]nc1C(C)(C)C [Compound 27] | – | 1010 to 3000 | > 12000 | –
CNCCN(C)Cc1c[nH]nc1C1CCN(C(=O)CC(C)C)CC1 [Compound 40, 3-methyl-1-(4-(4-((methyl(2-(methylamino)ethyl)amino)methyl)-1H-pyrazol-3-yl)piperidin-1-yl)butan-1-one] | – | < 100 | – | 101 to 1000
CN(CCN)Cc1c[nH]nc1C1CCC(N2CCOCC2)CC1 (centres unmarked) [Compound 43, N^1-methyl-N^1-((3-(4-morpholinocyclohexyl)-1H-pyrazol-4-yl)methyl)ethane-1,2-diamine] | – | < 100 | < 3000 | –
